Source: publication PMC5931107, “Clinical pharmacodynamic/exposure characterisation of the multikinase inhibitor ilorasertib (ABT-348) in a phase 1 dose-escalation trial” (British Journal of Cancer, 2018)

Assay: Safety: treatment-emergent adverse events (CTCAE v4.0), phase 1 trial
Format: in vivo, human
Protocol: Safety was assessed on the basis of AEs, physical examination, vital signs, electrocardiograms, multiple-gated acquisition scans, and clinical laboratory test assessments. AEs were graded using National Cancer Institute CTCAE version 4.0.
Descriptive statistics were used for demographic variables. The numbers and percentages of patients with treatment-emergent AEs (TEAEs) were tabulated using the Medical Dictionary for Regulatory Activities version 16.0 system organ class and preferred term, and further classified according to CTCAE version 4.0 criteria. The safety data set included all patients who received one or more doses of ilorasertib. The pharmacokinetic data set included all patients who received one or more doses of ilorasertib and had one or more pharmacokinetic samples. Values for pharmacokinetic parameters were determined using non-compartmental methods, with data analysed separately for each arm. A repeated measures analysis was performed for Tmax and dose-normalised Cmax, AUCt, and AUC∞. The model included random effects for patient and fixed effects for dose level, day, and the interaction of dose level and day. To assess effects of exposure on pharmacodynamic biomarkers, Cmax was employed as the directly measured marker of exposure for the rapid changes in DBP and PlGF pre-steady-state, while AUC∞ reflected exposure variability at the time of post-multiple-dose skin biopsy. Descriptive statistics were used to summarise ECOG performance status. The efficacy data set included all patients who received one or more doses of ilorasertib.

Structure (SMILES): Nc1ncc(-c2cnn(CCO)c2)c2scc(-c3ccc(NC(=O)Nc4cccc(F)c4)cc3)c12 [ilorasertib, Ilorasertib]
- Any grade AE, patients n (%) (Arm I PO QD, N = 23): 22 (96)
- Constipation, any grade TEAE, patients n (%) (Arm I PO QD, N = 23): 6 (26)
- Decreased appetite, any grade TEAE, patients n (%) (Arm I PO QD, N = 23): 8 (35)
- Diarrhoea, any grade TEAE, patients n (%) (Arm I PO QD, N = 23): 5 (22)
- Diarrhoea, grade 3 or 4 TEAE, patients n (%) (Arm I PO QD, N = 23): 1 (4)
- Dyspnoea, any grade TEAE, patients n (%) (Arm I PO QD, N = 23): 2 (9)
- Fatigue, any grade TEAE, patients n (%) (Arm I PO QD, N = 23): 13 (57)
- Grade 3 or 4 AE, patients n (%) (Arm I PO QD, N = 23): 14 (61)
- Headache, any grade TEAE, patients n (%) (Arm I PO QD, N = 23): 5 (22)
- Hypertension, any grade TEAE, patients n (%) (Arm I PO QD, N = 23): 8 (35)
- Hypertension, grade 3 or 4 TEAE, patients n (%) (Arm I PO QD, N = 23): 4 (17)
- Hypokalaemia, any grade TEAE, patients n (%) (Arm I PO QD, N = 23): 3 (13)
- Hypomagnesaemia, any grade TEAE, patients n (%) (Arm I PO QD, N = 23): 3 (13)
- Nausea, any grade TEAE, patients n (%) (Arm I PO QD, N = 23): 8 (35)
- Neutropenia, grade 3 or 4 TEAE, patients n (%) (Arm I PO QD, N = 23): 0
- Thrombocytopenia, any grade TEAE, patients n (%) (Arm I PO QD, N = 23): 3 (13)
- Urinary tract infection, any grade TEAE, patients n (%) (Arm I PO QD, N = 23): 2 (9)
- Vomiting, any grade TEAE, patients n (%) (Arm I PO QD, N = 23): 3 (13)
- Any grade AE, patients n (%) (Arm II PO BID, N = 28): 27 (96)
- Constipation, any grade TEAE, patients n (%) (Arm II PO BID, N = 28): 5 (18)
- Decreased appetite, any grade TEAE, patients n (%) (Arm II PO BID, N = 28): 9 (32)
- Diarrhoea, any grade TEAE, patients n (%) (Arm II PO BID, N = 28): 8 (29)
- Diarrhoea, grade 3 or 4 TEAE, patients n (%) (Arm II PO BID, N = 28): 1 (4)
- Dyspnoea, any grade TEAE, patients n (%) (Arm II PO BID, N = 28): 3 (11)
- Fatigue, any grade TEAE, patients n (%) (Arm II PO BID, N = 28): 14 (50)
- Grade 3 or 4 AE, patients n (%) (Arm II PO BID, N = 28): 15 (54)
- Headache, any grade TEAE, patients n (%) (Arm II PO BID, N = 28): 4 (14)
- Hypertension, any grade TEAE, patients n (%) (Arm II PO BID, N = 28): 9 (32)
- Hypertension, grade 3 or 4 TEAE, patients n (%) (Arm II PO BID, N = 28): 4 (14)
- Hypokalaemia, any grade TEAE, patients n (%) (Arm II PO BID, N = 28): 3 (11)
- Hypomagnesaemia, any grade TEAE, patients n (%) (Arm II PO BID, N = 28): 3 (11)
- Nausea, any grade TEAE, patients n (%) (Arm II PO BID, N = 28): 5 (18)
- Neutropenia, grade 3 or 4 TEAE, patients n (%) (Arm II PO BID, N = 28): 2 (7)
- Thrombocytopenia, any grade TEAE, patients n (%) (Arm II PO BID, N = 28): 5 (18)
- Urinary tract infection, any grade TEAE, patients n (%) (Arm II PO BID, N = 28): 5 (18)
- Vomiting, any grade TEAE, patients n (%) (Arm II PO BID, N = 28): 8 (29)
- Any grade AE, patients n (%) (Arm III i.v., N = 7): 7 (100)
- Constipation, any grade TEAE, patients n (%) (Arm III i.v., N = 7): 2 (29)
- Decreased appetite, any grade TEAE, patients n (%) (Arm III i.v., N = 7): 3 (43)
- Diarrhoea, any grade TEAE, patients n (%) (Arm III i.v., N = 7): 2 (29)
- Diarrhoea, grade 3 or 4 TEAE, patients n (%) (Arm III i.v., N = 7): 0
- Dyspnoea, any grade TEAE, patients n (%) (Arm III i.v., N = 7): 2 (29)
- Fatigue, any grade TEAE, patients n (%) (Arm III i.v., N = 7): 1 (14)
- Grade 3 or 4 AE, patients n (%) (Arm III i.v., N = 7): 3 (43)
- Headache, any grade TEAE, patients n (%) (Arm III i.v., N = 7): 0
- Hypertension, any grade TEAE, patients n (%) (Arm III i.v., N = 7): 3 (43)
- Hypertension, grade 3 or 4 TEAE, patients n (%) (Arm III i.v., N = 7): 2 (29)
- Hypokalaemia, any grade TEAE, patients n (%) (Arm III i.v., N = 7): 0
- Hypomagnesaemia, any grade TEAE, patients n (%) (Arm III i.v., N = 7): 0
- Nausea, any grade TEAE, patients n (%) (Arm III i.v., N = 7): 2 (29)
- Neutropenia, grade 3 or 4 TEAE, patients n (%) (Arm III i.v., N = 7): 0
- Thrombocytopenia, any grade TEAE, patients n (%) (Arm III i.v., N = 7): 0
- Urinary tract infection, any grade TEAE, patients n (%) (Arm III i.v., N = 7): 2 (29)
- Vomiting, any grade TEAE, patients n (%) (Arm III i.v., N = 7): 1 (14)
- Any grade AE, patients n (%) (Total, N = 58): 56 (97)
- Constipation, any grade TEAE, patients n (%) (Total, N = 58): 13 (22)
- Decreased appetite, any grade TEAE, patients n (%) (Total, N = 58): 20 (34)
- Diarrhoea, any grade TEAE, patients n (%) (Total, N = 58): 15 (26)
- Diarrhoea, grade 3 or 4 TEAE, patients n (%) (Total, N = 58): 2 (3)
- Dyspnoea, any grade TEAE, patients n (%) (Total, N = 58): 7 (12)
- Fatigue, any grade TEAE, patients n (%) (Total, N = 58): 28 (48)
- Grade 3 or 4 AE, patients n (%) (Total, N = 58): 32 (55)
- Headache, any grade TEAE, patients n (%) (Total, N = 58): 9 (16)
- Hypertension, any grade TEAE, patients n (%) (Total, N = 58): 20 (34)
- Hypertension, grade 3 or 4 TEAE, patients n (%) (Total, N = 58): 10 (17)
- Hypokalaemia, any grade TEAE, patients n (%) (Total, N = 58): 6 (10)
- Hypomagnesaemia, any grade TEAE, patients n (%) (Total, N = 58): 6 (10)
- Nausea, any grade TEAE, patients n (%) (Total, N = 58): 15 (26)
- Neutropenia, grade 3 or 4 TEAE, patients n (%) (Total, N = 58): 2 (3)
- Thrombocytopenia, any grade TEAE, patients n (%) (Total, N = 58): 8 (14)
- Urinary tract infection, any grade TEAE, patients n (%) (Total, N = 58): 9 (16)
- Vomiting, any grade TEAE, patients n (%) (Total, N = 58): 12 (21)
- Grade 3 or 4 TEAE diarrhoea, patients (all 58 patients): 3%
- Grade 3 or 4 TEAE hypertension, patients (all 58 patients): 17%
- Grade 3 or 4 TEAE neutropenia, patients (all 58 patients): 3%
- Patients with TEAEs (all 58 patients): 97%
- Patients with TEAEs considered possibly or probably related to ilorasertib (all 58 patients): 66%
- Patients with TEAEs that led to discontinuation (all 58 patients): 17%
- Patients with grade 3 or 4 TEAEs (all 58 patients): 55%
- Patients with treatment-emergent serious AEs (all 58 patients): 36%
- Patients with treatment-related grade 3 or 4 TEAEs (all 58 patients): 28%
- Serious AE fatigue, patients (all 58 patients): 3%
- Serious AE small intestinal obstruction, patients (all 58 patients): 7%
- TEAE constipation, patients (all 58 patients): 22%
- TEAE decreased appetite (anorexia), patients (all 58 patients): 34%
- TEAE diarrhoea, patients (all 58 patients): 26%
- TEAE fatigue, patients (all 58 patients): 48%
- TEAE hypertension, patients (all 58 patients): 34%
- TEAE nausea, patients (all 58 patients): 26%
- TEAE vomiting, patients (all 58 patients): 21%
- Treatment-related TEAE decreased appetite, patients (all 58 patients): 19%
- Treatment-related TEAE diarrhoea, patients (all 58 patients): 14%
- Treatment-related TEAE fatigue, patients (all 58 patients): 24%
- Treatment-related TEAE hypertension, patients (all 58 patients): 29%
- Treatment-related TEAE nausea, patients (all 58 patients): 17%
- Treatment-related TEAE thrombocytopenia, patients (all 58 patients): 14%
- Treatment-related TEAE vomiting, patients (all 58 patients): 10%
- Treatment-related grade 3 or 4 diarrhoea, patients (all 58 patients): 3%
- Treatment-related grade 3 or 4 hypertension, patients (all 58 patients): 14%
- Treatment-related grade 3 or 4 neutropenia, patients (all 58 patients): 3%
- Relatedness of deaths to ilorasertib (investigator) (in vivo): none of the deaths were considered related to ilorasertib
- Deaths resulting from TEAEs (one patient in Arm I, two in Arm II, within 30 days of discontinuing the study): three patients
